System: MV-4-11 cells
Assay: Gene expression microarray analysis (Affymetrix PrimeView) and GSEA
Format: cell-based, human
Set-up: RFU PODN (11730768_x_at) / Fold change /veh PODN (11730768_x_at) / RFU LINC00158 (11744669_a_at) / Fold change /veh LINC00158 (11744669_a_at) / RFU DUSP10 (11751237_a_at) / Fold change /veh DUSP10 (11751237_a_at) / RFU ID3 (11757404_x_at) / Fold change /veh ID3 (11757404_x_at) / RFU PLEKHG5 (11737974_s_at) / Fold change /veh PLEKHG5 (11737974_s_at) / RFU LRRC4B (11730491_at) / Fold change /veh LRRC4B (11730491_at) / RFU GIMAP4 (11747438_a_at) / Fold change /veh GIMAP4 (11747438_a_at) / RFU KRT8 (11758183_x_at) / Fold change /veh KRT8 (11758183_x_at) / RFU CNN1 (11734310_a_at) / Fold change /veh CNN1 (11734310_a_at) / RFU VPS37D (11726825_at) / Fold change /veh VPS37D (11726825_at) / RFU C10orf10 (11716522_x_at) / Fold change /veh C10orf10 (11716522_x_at) / RFU KIR2DL2 /// KIR2DL4 /// KIR2DL5A /// KIR2DL5B /// KIR2DS1 /// KIR2DS2 /// KIR2DS3 /// KIR2DS4 /// KIR3DL3 /// KIR3DL3 /// KIR3DS1 (11738374_at) / Fold change /veh KIR2DL2 /// KIR2DL4 /// KIR2DL5A /// KIR2DL5B /// KIR2DS1 /// KIR2DS2 /// KIR2DS3 /// KIR2DS4 /// KIR3DL3 /// KIR3DL3 /// KIR3DS1 (11738374_at) / RFU C1QL1 (11718748_at) / Fold change /veh C1QL1 (11718748_at) / RFU TMPRSS4 (11747572_a_at) / Fold change /veh TMPRSS4 (11747572_a_at) / RFU HAMP (11756126_x_at) / Fold change /veh HAMP (11756126_x_at) / RFU RNFT2 (11725882_a_at) / Fold change /veh RNFT2 (11725882_a_at) / RFU NR4A2 (11747474_a_at) / Fold change /veh NR4A2 (11747474_a_at) / RFU ABCC12 (11746883_a_at) / Fold change /veh ABCC12 (11746883_a_at) / RFU TMEM136 (11760407_x_at) / Fold change /veh TMEM136 (11760407_x_at) / RFU CLDN22 /// WWC2 (11732394_at) / Fold change /veh CLDN22 /// WWC2 (11732394_at) / RFU HLA-DPB1 (11760878_x_at) / Fold change /veh HLA-DPB1 (11760878_x_at) / RFU SPINT1 (11716480_a_at) / Fold change /veh SPINT1 (11716480_a_at) / RFU GAP43 (11754022_s_at) / Fold change /veh GAP43 (11754022_s_at) / RFU A4GNT (11735810_at) / Fold change /veh A4GNT (11735810_at) / RFU PRB3 (11715151_x_at) / Fold change /veh PRB3 (11715151_x_at) / RFU TUBB4B (11761932_at) / Fold change /veh TUBB4B (11761932_at) / RFU CAPN14 (11732068_a_at) / Fold change /veh CAPN14 (11732068_a_at) / RFU TMCC2 (11721928_a_at) / Fold change /veh TMCC2 (11721928_a_at) / RFU IRGQ (11745062_a_at) / Fold change /veh IRGQ (11745062_a_at) / RFU FAM174B (11720279_a_at) / Fold change /veh FAM174B (11720279_a_at) / RFU TMPRSS4 (11748680_a_at) / Fold change /veh TMPRSS4 (11748680_a_at) / RFU FAM212B (11763350_a_at) / Fold change /veh FAM212B (11763350_a_at) / RFU PLEKHG5 (11743358_a_at) / Fold change /veh PLEKHG5 (11743358_a_at) / RFU ZSCAN30 (11745921_a_at) / Fold change /veh ZSCAN30 (11745921_a_at) / RFU CMKLR1 (11741424_a_at) / Fold change /veh CMKLR1 (11741424_a_at) / RFU LOC101060620 /// MAPK8IP1 (11723275_at) / Fold change /veh LOC101060620 /// MAPK8IP1 (11723275_at) / RFU SPTSSB (11747773_x_at) / Fold change /veh SPTSSB (11747773_x_at) / RFU PRSS12 (11739890_at) / Fold change /veh PRSS12 (11739890_at) / RFU BIN1 (11741810_x_at) / Fold change /veh BIN1 (11741810_x_at) / RFU WNT11 (11732464_a_at) / Fold change /veh WNT11 (11732464_a_at) / RFU C10orf10 (11716521_a_at) / Fold change /veh C10orf10 (11716521_a_at) / RFU C5orf56 (11738089_at) / Fold change /veh C5orf56 (11738089_at) / RFU CYB561 (11721691_x_at) / Fold change /veh CYB561 (11721691_x_at) / RFU ANKRD19P (11752326_a_at) / Fold change /veh ANKRD19P (11752326_a_at) / RFU OR2T12 /// OR2T33 /// OR2T8 (11738714_s_at) / Fold change /veh OR2T12 /// OR2T33 /// OR2T8 (11738714_s_at) / RFU VCAN (11748164_a_at) / Fold change /veh VCAN (11748164_a_at) / RFU JSRP1 (11732532_at) / Fold change /veh JSRP1 (11732532_at) / RFU KRTAP10-11 (11738290_x_at) / Fold change /veh KRTAP10-11 (11738290_x_at) / RFU MYO3A (11730013_a_at) / Fold change /veh MYO3A (11730013_a_at) / RFU EBF3 (11725865_a_at) / Fold change /veh EBF3 (11725865_a_at) / RFU CAMK2N1 (11719241_x_at) / Fold change /veh CAMK2N1 (11719241_x_at) / RFU C5orf56 (11738088_a_at) / Fold change /veh C5orf56 (11738088_a_at) / RFU OLFML3 (11715873_a_at) / Fold change /veh OLFML3 (11715873_a_at) / RFU LOC100653217 /// NTM (11731650_a_at) / Fold change /veh LOC100653217 /// NTM (11731650_a_at) / RFU MAPK11 (11762145_a_at) / Fold change /veh MAPK11 (11762145_a_at) / RFU FIZ1 (11724087_x_at) / Fold change /veh FIZ1 (11724087_x_at) / RFU OASL (11726364_x_at) / Fold change /veh OASL (11726364_x_at) / RFU SOX15 (11748057_x_at) / Fold change /veh SOX15 (11748057_x_at) / RFU CD79A (11719716_a_at) / Fold change /veh CD79A (11719716_a_at) / RFU HIST1H1D (11736915_at) / Fold change /veh HIST1H1D (11736915_at) / RFU CASKIN2 (11723855_a_at) / Fold change /veh CASKIN2 (11723855_a_at) / RFU LOC730098 (11760151_x_at) / Fold change /veh LOC730098 (11760151_x_at) / RFU OR4N2 (11742367_at) / Fold change /veh OR4N2 (11742367_at) / RFU PRRT2 (11749266_a_at) / Fold change /veh PRRT2 (11749266_a_at) / RFU SNX32 (11753110_a_at) / Fold change /veh SNX32 (11753110_a_at) / RFU CDHR5 (11726645_a_at) / Fold change /veh CDHR5 (11726645_a_at) / RFU RCAN1 (11760418_a_at) / Fold change /veh RCAN1 (11760418_a_at) / RFU FAM167A (11723789_a_at) / Fold change /veh FAM167A (11723789_a_at) / RFU FAM26E (11764081_at) / Fold change /veh FAM26E (11764081_at) / RFU ISYNA1 (11749810_s_at) / Fold change /veh ISYNA1 (11749810_s_at) / RFU ACY1 (11761880_at) / Fold change /veh ACY1 (11761880_at) / RFU 11764098_at / Fold change /veh 11764098_at / RFU SAMD14 (11745864_x_at) / Fold change /veh SAMD14 (11745864_x_at) / RFU NPB (11741838_a_at) / Fold change /veh NPB (11741838_a_at) / RFU TMPRSS6 (11731388_a_at) / Fold change /veh TMPRSS6 (11731388_a_at) / RFU KRTAP10-2 (11738614_at) / Fold change /veh KRTAP10-2 (11738614_at) / RFU ARHGAP8 /// PRR5-ARHGAP8 (11727945_x_at) / Fold change /veh ARHGAP8 /// PRR5-ARHGAP8 (11727945_x_at) / RFU KRTAP5-7 /// NADSYN1 (11734609_at) / Fold change /veh KRTAP5-7 /// NADSYN1 (11734609_at) / RFU RASL12 (11751679_a_at) / Fold change /veh RASL12 (11751679_a_at) / RFU CDKN2B (11736163_a_at) / Fold change /veh CDKN2B (11736163_a_at) / RFU PRF1 (11729649_at) / Fold change /veh PRF1 (11729649_at) / RFU, ZNF638 /// ZNF638-IT1 / Fold change vs veh, ZNF638 /// ZNF638-IT1 / RFU, PANK3 / Fold change vs veh, PANK3 / RFU, SH3YL1 / Fold change vs veh, SH3YL1 / RFU, ZEB2 / Fold change vs veh, ZEB2 / RFU, NRIP1 / Fold change vs veh, NRIP1 / RFU, PTTG1IP / Fold change vs veh, PTTG1IP / RFU, CAPN2 / Fold change vs veh, CAPN2 / RFU, MED14 / Fold change vs veh, MED14 / RFU, SNORA58 / Fold change vs veh, SNORA58 / RFU, C1orf63 / Fold change vs veh, C1orf63 / RFU, LRRFIP1 / Fold change vs veh, LRRFIP1 / RFU, NDUFAF7 / Fold change vs veh, NDUFAF7 / RFU, SLC12A2 / Fold change vs veh, SLC12A2 / RFU, IBTK / Fold change vs veh, IBTK / RFU, ESF1 / Fold change vs veh, ESF1 / Fold change vs veh, TMEM50B / RFU, TAOK1 / Fold change vs veh, TAOK1 / RFU, ACBD3 / Fold change vs veh, ACBD3 / RFU, TMA16 / Fold change vs veh, TMA16 / RFU, RWDD3 / Fold change vs veh, RWDD3 / RFU, BCAT1 / Fold change vs veh, BCAT1 / RFU, EDEM3 / Fold change vs veh, EDEM3 / RFU, TMEM33 / Fold change vs veh, TMEM33 / RFU, WDR75 / Fold change vs veh, WDR75 / RFU, AHCTF1 / Fold change vs veh, AHCTF1 / RFU, TFRC / Fold change vs veh, TFRC / RFU, ZDHHC17 / Fold change vs veh, ZDHHC17 / RFU, NOM1 / Fold change vs veh, NOM1 / RFU, ARL8B / Fold change vs veh, ARL8B / RFU, ZBTB11 / Fold change vs veh, ZBTB11 / RFU, TAMM41 / Fold change vs veh, TAMM41 / RFU, KIAA1704 /// LOC100996395 / Fold change vs veh, KIAA1704 /// LOC100996395 / RFU, ING1 / Fold change vs veh, ING1 / RFU, TRMT61B / Fold change vs veh, TRMT61B / RFU, FUBP3 / Fold change vs veh, FUBP3 / RFU, TP53 / Fold change vs veh, TP53 / RFU, TNKS2 / Fold change vs veh, TNKS2 / RFU, ZFP14 / Fold change vs veh, ZFP14 / RFU, ACTR2 / Fold change vs veh, ACTR2 / RFU, PPP3R1 / Fold change vs veh, PPP3R1 / RFU, PIK3R1 / Fold change vs veh, PIK3R1 / RFU, HNRNPA1 / Fold change vs veh, HNRNPA1 / RFU, RNF170 / Fold change vs veh, RNF170 / RFU, ZNF28 / Fold change vs veh, ZNF28 / RFU, RNGTT / Fold change vs veh, RNGTT / RFU, OGT / Fold change vs veh, OGT / RFU, BRD1 / Fold change vs veh, BRD1 / RFU, MARS / Fold change vs veh, MARS / RFU, ZNF655 / Fold change vs veh, ZNF655 / RFU, FAHD1 / Fold change vs veh, FAHD1 / RFU, BDP1 / Fold change vs veh, BDP1 / RFU, LRRCC1 / Fold change vs veh, LRRCC1 / RFU, ARID1A / Fold change vs veh, ARID1A / RFU, ZNF146 / Fold change vs veh, ZNF146 / RFU, ZNF330 / Fold change vs veh, ZNF330 / RFU, GPN3 / Fold change vs veh, GPN3 / RFU, C9orf123 / Fold change vs veh, C9orf123 / RFU, N4BP2L2 / Fold change vs veh, N4BP2L2 / RFU, ARFIP1 / Fold change vs veh, ARFIP1 / RFU, FAM179B / Fold change vs veh, FAM179B / RFU, BCL10 / Fold change vs veh, BCL10 / RFU, UHRF1BP1L / Fold change vs veh, UHRF1BP1L / RFU, BET1 / Fold change vs veh, BET1 / RFU, CNOT2 / Fold change vs veh, CNOT2 / RFU, ZNF268 / Fold change vs veh, ZNF268 / Fold change vs veh, ZNF507 / RFU, DGCR2 / Fold change vs veh, DGCR2 / RFU, WDSUB1 / Fold change vs veh, WDSUB1 / Fold change vs veh, HSP90B1 /// MIR3652 / RFU, ADSS / Fold change vs veh, ADSS / RFU, GK / Fold change vs veh, GK / RFU, ZNF148 / Fold change vs veh, ZNF148 / RFU, TAF9 / Fold change vs veh, TAF9 / RFU, SLC1A5 / Fold change vs veh, SLC1A5 / RFU, SLMO2 / Fold change vs veh, SLMO2 / RFU, ABCC4 / Fold change vs veh, ABCC4 / RFU, LOC101060439 /// RAP1B / Fold change vs veh, LOC101060439 /// RAP1B / RFU, RFX7 / Fold change vs veh, RFX7 / RFU, GTPBP10 / Fold change vs veh, GTPBP10 / RFU, CNEP1R1 / Fold change vs veh, CNEP1R1 / RFU, BIVM-ERCC5 /// ERCC5 / Fold change vs veh, BIVM-ERCC5 /// ERCC5 / RFU, ILF3 / Fold change vs veh, ILF3 / RFU 11762660_at / Fold change /veh 11762660_at / RFU VCAN (11757783_s_at) / Fold change /veh VCAN (11757783_s_at) / RFU DDX43 (11728927_at) / Fold change /veh DDX43 (11728927_at) / RFU KRT8 (11758188_x_at) / Fold change /veh KRT8 (11758188_x_at) / RFU NKD1 (11759106_at) / Fold change /veh NKD1 (11759106_at) / RFU SRD5A1 (11742802_a_at) / Fold change /veh SRD5A1 (11742802_a_at) / RFU TPSAB1 /// TPSB2 (11721975_s_at) / Fold change /veh TPSAB1 /// TPSB2 (11721975_s_at) / RFU GSTM3 (11746129_a_at) / Fold change /veh GSTM3 (11746129_a_at) / RFU IL23R (11737362_x_at) / Fold change /veh IL23R (11737362_x_at) / RFU TMEM51 (11727254_a_at) / Fold change /veh TMEM51 (11727254_a_at) / RFU PIWIL2 (11732686_x_at) / Fold change /veh PIWIL2 (11732686_x_at) / RFU ORM1 (11744905_x_at) / Fold change /veh ORM1 (11744905_x_at) / RFU CCDC152 (11743942_at) / Fold change /veh CCDC152 (11743942_at) / RFU ECM1 (11717891_a_at) / Fold change /veh ECM1 (11717891_a_at) / RFU IL23R (11748794_a_at) / Fold change /veh IL23R (11748794_a_at) / RFU TNFAIP8L3 (11732012_x_at) / Fold change /veh TNFAIP8L3 (11732012_x_at) / RFU MBOAT4 (11741988_at) / Fold change /veh MBOAT4 (11741988_at) / RFU 11764193_at / Fold change /veh 11764193_at / RFU TMEM53 (11763286_at) / Fold change /veh TMEM53 (11763286_at) / RFU MAGEB2 (11727129_at) / Fold change /veh MAGEB2 (11727129_at) / RFU TMEM200A (11744735_a_at) / Fold change /veh TMEM200A (11744735_a_at) / RFU CCDC152 (11751479_a_at) / Fold change /veh CCDC152 (11751479_a_at) / RFU FAM211A (11726209_a_at) / Fold change /veh FAM211A (11726209_a_at) / RFU RGS16 (11746705_a_at) / Fold change /veh RGS16 (11746705_a_at) / RFU VCAN (11755009_s_at) / Fold change /veh VCAN (11755009_s_at) / RFU RHOB (11743442_s_at) / Fold change /veh RHOB (11743442_s_at) / RFU RGS16 (11720943_a_at) / Fold change /veh RGS16 (11720943_a_at) / RFU RGS16 (11720944_at) / Fold change /veh RGS16 (11720944_at) / RFU, VPS4B / Fold change vs veh, VPS4B / RFU, CREB1 / Fold change vs veh, CREB1 / RFU, DNAJC13 / Fold change vs veh, DNAJC13 / RFU, GNAQ / Fold change vs veh, GNAQ / RFU, CDK5R1 / Fold change vs veh, CDK5R1 / RFU, ZRANB3 / Fold change vs veh, ZRANB3 / RFU, CUL4A / Fold change vs veh, CUL4A / RFU, CCNY / Fold change vs veh, CCNY / RFU, UFL1 / Fold change vs veh, UFL1 / RFU, COG3 / Fold change vs veh, COG3 / RFU, DIAPH2 / Fold change vs veh, DIAPH2 / RFU, SKA2 / Fold change vs veh, SKA2 / RFU, AFF3 / Fold change vs veh, AFF3 / RFU, LMF1 / Fold change vs veh, LMF1 / RFU, IPO11 / Fold change vs veh, IPO11 / RFU, DFFB / Fold change vs veh, DFFB / RFU, FOXP1 / Fold change vs veh, FOXP1 / RFU, CARD8 / Fold change vs veh, CARD8 / RFU, STRN3 / Fold change vs veh, STRN3 / RFU, ADK / Fold change vs veh, ADK / RFU, RASSF2 / Fold change vs veh, RASSF2 / RFU, WIPF1 / Fold change vs veh, WIPF1 / RFU, LARP1B / Fold change vs veh, LARP1B / RFU, RASA1 / Fold change vs veh, RASA1 / RFU, RB1 / Fold change vs veh, RB1 / RFU, PPFIA1 / Fold change vs veh, PPFIA1 / RFU, MAT2A / Fold change vs veh, MAT2A / RFU, CCT5 / Fold change vs veh, CCT5 / RFU, WDR92 / Fold change vs veh, WDR92 / RFU, CUX1 / Fold change vs veh, CUX1 / RFU, TTC7A / Fold change vs veh, TTC7A / RFU, TMEM135 / Fold change vs veh, TMEM135 / RFU, DEPTOR / Fold change vs veh, DEPTOR / RFU, CPM / Fold change vs veh, CPM / RFU, DNAJB6 / Fold change vs veh, DNAJB6 / RFU, CACNA2D3 / Fold change vs veh, CACNA2D3 / RFU, DTX4 / Fold change vs veh, DTX4 / RFU, TFCP2 / Fold change vs veh, TFCP2 / RFU, GMCL1 /// GMCL1P1 / Fold change vs veh, GMCL1 /// GMCL1P1 / RFU, AEBP2 / Fold change vs veh, AEBP2 / RFU, SNHG1 /// SNORD22 /// SNORD25 /// SNORD26 /// SNORD27 /// SNORD28 /// SNORD29 /// SNORD31 / Fold change vs veh, SNHG1 /// SNORD22 /// SNORD25 /// SNORD26 /// SNORD27 /// SNORD28 /// SNORD29 /// SNORD31 / Fold change (Aza/veh), C12orf56 (ProbeSet 11735607_a_at) / Fold change (ACY-1035/veh), C12orf56 (ProbeSet 11735607_a_at) / Fold change (Aza/veh), FGFR1OP (ProbeSet 11751329_s_at) / Fold change (ACY-1035/veh), FGFR1OP (ProbeSet 11751329_s_at) / Fold change (Aza/veh), VPS36 (ProbeSet 11739960_a_at) / Fold change (ACY-1035/veh), VPS36 (ProbeSet 11739960_a_at) / RFU SYPL1 (11715823_x_at) / Fold change /veh SYPL1 (11715823_x_at) / RFU IGFBP7 (11715501_s_at) / Fold change /veh IGFBP7 (11715501_s_at) / RFU REEP3 (11722064_at) / Fold change /veh REEP3 (11722064_at) / RFU IGLL1 (11728026_x_at) / Fold change /veh IGLL1 (11728026_x_at): dose or concentration left out as unconfirmed
Details: ProbeSet 11755159_a_at; LIST D

For `Nc1ccc(-c2cccs2)cc1NC(=O)c1ccc2c(c1)cc(C1CC1)n2CCN1CCOCC1` [ACY-1035], the “RFU, COG3” value was 86.80 RFU.
